Columns and labels:
[1] = target: Platelet-derived growth factor receptor alpha (Homo sapiens, UniProt P16234); assay: Selectivity interaction (KinomeScan (DiscoverX)) EUB0000229b PDGFRA; details: at 10 µM
[2] = target: Ribosomal protein S6 kinase alpha-2 (Homo sapiens) (UniProt Q15349); assay: Selectivity interaction (KinomeScan (DiscoverX)) EUB0000045b RPS6KA2; details: at 1 µM
[3] = target: Mitogen-activated protein kinase kinase kinase 11 (Homo sapiens) (UniProt Q16584); assay: Selectivity interaction (KinomeScan (DiscoverX)) EUB0001079a MAP3K11; details: at 1 µM
[4] = target: Calcium/calmodulin-dependent protein kinase type II subunit beta (Homo sapiens) (UniProt Q13554); assay: Selectivity interaction (Kinase panel (Z-LYTE Assay)) EUB0001632a CAMK2B; details: at 10 µM
[5] = target: Phosphatidylinositol 4-phosphate 5-kinase type-1 alpha (Homo sapiens) (UniProt Q99755); assay: Selectivity interaction (KinomeScan (DiscoverX)) EUB0000666a PIP5K1A; details: at 10 µM
[6] = target: T1, Serine/threonine-protein kinase BRSK1 (Homo sapiens) (UniProt Q8TDC3); assay: Selectivity interaction (ProQinase) EUB0000171b BRSK1
T1 sequence (whole entry): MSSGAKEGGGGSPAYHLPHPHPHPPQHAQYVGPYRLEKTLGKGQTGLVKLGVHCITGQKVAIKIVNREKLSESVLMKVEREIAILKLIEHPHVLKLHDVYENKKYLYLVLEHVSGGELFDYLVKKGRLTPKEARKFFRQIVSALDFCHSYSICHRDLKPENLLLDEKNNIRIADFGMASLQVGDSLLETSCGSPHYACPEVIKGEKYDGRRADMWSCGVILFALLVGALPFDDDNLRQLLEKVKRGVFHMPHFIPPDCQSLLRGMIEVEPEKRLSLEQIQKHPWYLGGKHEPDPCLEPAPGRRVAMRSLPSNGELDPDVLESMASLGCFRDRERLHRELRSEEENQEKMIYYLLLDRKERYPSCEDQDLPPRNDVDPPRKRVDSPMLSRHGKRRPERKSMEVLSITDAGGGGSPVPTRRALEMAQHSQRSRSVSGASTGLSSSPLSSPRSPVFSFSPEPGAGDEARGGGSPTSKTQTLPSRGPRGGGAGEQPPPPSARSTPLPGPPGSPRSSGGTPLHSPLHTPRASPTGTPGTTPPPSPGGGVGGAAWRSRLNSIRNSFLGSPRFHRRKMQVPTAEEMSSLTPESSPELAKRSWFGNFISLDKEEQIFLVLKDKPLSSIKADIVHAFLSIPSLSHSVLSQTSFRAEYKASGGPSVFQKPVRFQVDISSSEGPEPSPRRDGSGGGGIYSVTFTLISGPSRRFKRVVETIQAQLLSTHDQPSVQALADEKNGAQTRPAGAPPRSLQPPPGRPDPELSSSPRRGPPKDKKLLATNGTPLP

[7] = target: Cyclin-dependent kinase 5/CDK5 activator 1 (Homo sapiens) (UniProt Q00535+Q15078); assay: Selectivity interaction (ProQinase) EUB0000171b CDK5; assay type: protein-complex assay
[8] = target: [Pyruvate dehydrogenase (acetyl-transferring)] kinase isozyme 1, mitochondrial (Homo sapiens, UniProt Q15118); assay: Selectivity interaction (ProQinase) EUB0000171b PDK1
[9] = target: D(2) dopamine receptor (Homo sapiens, UniProt P14416); assay: Selectivity interaction (Panel of kinases, GPCRs, ion channels and transporters (enzymatic assay)) EUB0000223bCl DRD2
[10] = target: Ephrin type-A receptor 2 (Homo sapiens) (UniProt P29317); assay: Selectivity interaction (Kinase panel (literature)) EUB0001199aCl EPHA2; details: at 1 µM
[11] = target: Tyrosine-protein kinase Fer (Homo sapiens) (UniProt P16591); assay: Selectivity interaction (ActivX KiNativ screen (kinase selectivity in THP-1 cell lysates)) EUB0000639a FER; assay type: subcellular; details: lysate, at 5 µM
[12] = target: T2, Inhibitor of nuclear factor kappa-B kinase subunit alpha (Homo sapiens) (UniProt O15111); assay: Selectivity interaction (KinomeScan (DiscoverX)) EUB0000655a CHUK; details: at 10 µM
T2 sequence (whole entry): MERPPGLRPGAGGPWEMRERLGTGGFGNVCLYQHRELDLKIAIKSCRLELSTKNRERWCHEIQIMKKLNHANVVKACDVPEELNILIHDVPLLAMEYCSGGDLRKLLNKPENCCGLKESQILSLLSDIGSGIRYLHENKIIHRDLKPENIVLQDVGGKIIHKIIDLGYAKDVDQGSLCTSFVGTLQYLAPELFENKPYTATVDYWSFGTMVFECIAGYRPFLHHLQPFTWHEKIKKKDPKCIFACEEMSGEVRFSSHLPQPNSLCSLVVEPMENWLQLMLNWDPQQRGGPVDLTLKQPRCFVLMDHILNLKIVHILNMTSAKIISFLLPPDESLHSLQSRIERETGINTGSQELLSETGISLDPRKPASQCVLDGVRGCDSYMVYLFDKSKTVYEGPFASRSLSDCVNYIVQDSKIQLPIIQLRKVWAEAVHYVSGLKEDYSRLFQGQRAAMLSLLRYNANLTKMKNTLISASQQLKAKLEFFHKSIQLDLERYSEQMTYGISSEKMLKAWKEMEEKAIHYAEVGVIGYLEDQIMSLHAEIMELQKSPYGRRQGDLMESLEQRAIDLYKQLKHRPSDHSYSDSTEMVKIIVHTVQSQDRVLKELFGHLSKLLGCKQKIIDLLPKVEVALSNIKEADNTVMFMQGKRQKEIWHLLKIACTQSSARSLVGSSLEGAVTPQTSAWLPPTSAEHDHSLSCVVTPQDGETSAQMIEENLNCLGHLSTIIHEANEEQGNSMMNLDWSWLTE

[13] = target: Myosin-IIIa (Homo sapiens) (UniProt Q8NEV4); details: at 10 µM
[14] = target: Serine/threonine-protein kinase PAK 6 (Homo sapiens) (UniProt Q9NQU5); details: at 10 µM
[15] = target: Protein-tyrosine kinase 6 (Homo sapiens, UniProt Q13882); details: at 10 µM

Cyclin-dependent kinase 5/CDK5 activator 1 (Homo sapiens), sequence (Q00535 whole entry): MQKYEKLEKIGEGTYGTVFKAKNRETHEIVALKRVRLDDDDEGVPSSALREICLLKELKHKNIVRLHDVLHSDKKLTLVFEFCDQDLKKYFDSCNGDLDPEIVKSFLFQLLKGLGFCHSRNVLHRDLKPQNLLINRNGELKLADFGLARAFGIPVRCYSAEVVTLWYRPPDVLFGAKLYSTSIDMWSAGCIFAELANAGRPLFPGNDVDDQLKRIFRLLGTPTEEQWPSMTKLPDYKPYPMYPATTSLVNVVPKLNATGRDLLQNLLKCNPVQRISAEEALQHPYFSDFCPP
Cyclin-dependent kinase 5/CDK5 activator 1 (Homo sapiens), sequence (Q15078 99-307 partner limits assumed): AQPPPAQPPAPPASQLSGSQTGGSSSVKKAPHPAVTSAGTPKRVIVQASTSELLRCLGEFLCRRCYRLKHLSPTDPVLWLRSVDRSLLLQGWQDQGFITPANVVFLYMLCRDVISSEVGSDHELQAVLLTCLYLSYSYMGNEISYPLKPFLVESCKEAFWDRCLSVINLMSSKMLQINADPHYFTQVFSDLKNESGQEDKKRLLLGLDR
Tyrosine-protein kinase Fer (Homo sapiens), sequence (P16591 whole entry, looked up): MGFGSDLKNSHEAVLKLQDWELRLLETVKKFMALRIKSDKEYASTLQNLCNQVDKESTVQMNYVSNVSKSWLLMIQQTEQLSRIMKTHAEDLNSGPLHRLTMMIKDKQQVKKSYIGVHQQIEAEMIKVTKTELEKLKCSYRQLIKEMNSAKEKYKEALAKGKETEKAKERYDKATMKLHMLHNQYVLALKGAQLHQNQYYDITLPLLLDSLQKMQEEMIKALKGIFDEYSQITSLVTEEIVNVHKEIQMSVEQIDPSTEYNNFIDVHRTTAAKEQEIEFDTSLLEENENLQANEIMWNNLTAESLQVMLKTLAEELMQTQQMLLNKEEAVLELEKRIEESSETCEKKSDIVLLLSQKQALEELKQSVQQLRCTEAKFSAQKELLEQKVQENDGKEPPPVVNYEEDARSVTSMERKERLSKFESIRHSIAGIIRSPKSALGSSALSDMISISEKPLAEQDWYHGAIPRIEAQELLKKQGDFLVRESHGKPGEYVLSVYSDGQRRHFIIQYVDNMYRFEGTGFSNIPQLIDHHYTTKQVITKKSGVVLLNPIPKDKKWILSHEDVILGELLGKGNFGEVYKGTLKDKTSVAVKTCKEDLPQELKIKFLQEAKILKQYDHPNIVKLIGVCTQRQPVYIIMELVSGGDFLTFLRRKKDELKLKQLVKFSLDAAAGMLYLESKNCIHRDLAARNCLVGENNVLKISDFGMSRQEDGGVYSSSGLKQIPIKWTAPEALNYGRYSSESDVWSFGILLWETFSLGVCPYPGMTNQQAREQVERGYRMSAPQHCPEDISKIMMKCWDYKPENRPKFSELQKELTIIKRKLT
Platelet-derived growth factor receptor alpha, sequence (P16234 whole entry): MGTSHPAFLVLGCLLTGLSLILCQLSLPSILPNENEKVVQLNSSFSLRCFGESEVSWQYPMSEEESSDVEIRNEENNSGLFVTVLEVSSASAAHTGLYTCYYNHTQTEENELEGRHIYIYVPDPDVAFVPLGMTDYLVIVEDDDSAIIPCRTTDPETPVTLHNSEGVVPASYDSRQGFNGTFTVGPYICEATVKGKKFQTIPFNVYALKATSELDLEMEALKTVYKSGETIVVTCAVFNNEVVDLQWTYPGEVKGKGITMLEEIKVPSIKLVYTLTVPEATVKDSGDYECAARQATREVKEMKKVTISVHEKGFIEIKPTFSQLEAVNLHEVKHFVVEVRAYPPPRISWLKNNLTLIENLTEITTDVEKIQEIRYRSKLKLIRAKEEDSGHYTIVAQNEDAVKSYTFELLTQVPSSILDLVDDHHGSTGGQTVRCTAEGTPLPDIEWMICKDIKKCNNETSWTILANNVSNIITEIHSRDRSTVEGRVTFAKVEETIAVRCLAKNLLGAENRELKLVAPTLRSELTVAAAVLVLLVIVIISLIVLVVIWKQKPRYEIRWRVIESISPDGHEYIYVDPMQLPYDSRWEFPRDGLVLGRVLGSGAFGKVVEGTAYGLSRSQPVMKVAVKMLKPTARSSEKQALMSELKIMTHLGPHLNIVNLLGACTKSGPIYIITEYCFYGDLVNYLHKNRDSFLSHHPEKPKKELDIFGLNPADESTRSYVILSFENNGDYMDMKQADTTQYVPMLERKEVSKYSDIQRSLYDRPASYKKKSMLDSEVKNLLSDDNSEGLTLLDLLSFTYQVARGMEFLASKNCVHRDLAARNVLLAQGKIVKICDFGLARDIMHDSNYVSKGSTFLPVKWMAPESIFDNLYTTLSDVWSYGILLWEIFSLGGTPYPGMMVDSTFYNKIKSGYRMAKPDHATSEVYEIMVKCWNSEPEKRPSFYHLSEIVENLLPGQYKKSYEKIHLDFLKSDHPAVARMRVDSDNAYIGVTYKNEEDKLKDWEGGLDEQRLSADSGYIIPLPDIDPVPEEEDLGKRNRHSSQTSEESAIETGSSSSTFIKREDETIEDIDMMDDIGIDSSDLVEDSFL
Ribosomal protein S6 kinase alpha-2 (Homo sapiens), sequence (Q15349 whole entry): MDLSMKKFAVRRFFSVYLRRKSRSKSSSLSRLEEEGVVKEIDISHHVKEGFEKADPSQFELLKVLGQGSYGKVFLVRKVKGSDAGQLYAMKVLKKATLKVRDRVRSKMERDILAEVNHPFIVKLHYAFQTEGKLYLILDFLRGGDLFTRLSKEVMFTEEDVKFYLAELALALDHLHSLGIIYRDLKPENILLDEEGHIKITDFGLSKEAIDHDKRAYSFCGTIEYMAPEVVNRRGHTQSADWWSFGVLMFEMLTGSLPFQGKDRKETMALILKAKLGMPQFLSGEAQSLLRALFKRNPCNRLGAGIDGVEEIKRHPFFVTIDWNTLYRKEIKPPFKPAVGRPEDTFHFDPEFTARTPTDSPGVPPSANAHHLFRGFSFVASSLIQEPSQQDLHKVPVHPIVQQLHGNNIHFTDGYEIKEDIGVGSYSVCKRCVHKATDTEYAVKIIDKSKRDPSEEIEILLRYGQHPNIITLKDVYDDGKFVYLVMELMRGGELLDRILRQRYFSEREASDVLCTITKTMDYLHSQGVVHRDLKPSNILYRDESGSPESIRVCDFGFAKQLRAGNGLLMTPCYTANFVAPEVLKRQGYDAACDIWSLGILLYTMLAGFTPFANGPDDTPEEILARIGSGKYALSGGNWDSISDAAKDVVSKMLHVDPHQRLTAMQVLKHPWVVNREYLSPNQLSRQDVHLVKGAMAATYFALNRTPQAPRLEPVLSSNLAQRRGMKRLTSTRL
Calcium/calmodulin-dependent protein kinase type II subunit beta (Homo sapiens), sequence (Q13554 whole entry): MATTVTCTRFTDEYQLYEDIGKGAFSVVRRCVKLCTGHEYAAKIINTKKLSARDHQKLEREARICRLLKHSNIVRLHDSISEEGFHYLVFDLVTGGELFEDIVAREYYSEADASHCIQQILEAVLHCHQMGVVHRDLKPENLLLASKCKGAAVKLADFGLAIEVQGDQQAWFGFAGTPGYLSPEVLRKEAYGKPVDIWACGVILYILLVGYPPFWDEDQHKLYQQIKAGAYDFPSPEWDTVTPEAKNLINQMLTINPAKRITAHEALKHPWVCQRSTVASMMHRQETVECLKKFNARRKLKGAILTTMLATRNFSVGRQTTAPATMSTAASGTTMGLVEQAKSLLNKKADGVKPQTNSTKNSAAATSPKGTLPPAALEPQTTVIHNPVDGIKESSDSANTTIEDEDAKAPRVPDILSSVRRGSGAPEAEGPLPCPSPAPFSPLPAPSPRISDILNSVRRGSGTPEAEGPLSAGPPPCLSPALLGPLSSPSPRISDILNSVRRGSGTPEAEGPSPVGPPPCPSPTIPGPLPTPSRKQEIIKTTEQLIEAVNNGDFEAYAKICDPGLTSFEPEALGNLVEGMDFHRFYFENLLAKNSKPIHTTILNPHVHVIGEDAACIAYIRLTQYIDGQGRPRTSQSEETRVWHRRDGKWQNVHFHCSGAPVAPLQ
Mitogen-activated protein kinase kinase kinase 11 (Homo sapiens), sequence (Q16584 whole entry, looked up): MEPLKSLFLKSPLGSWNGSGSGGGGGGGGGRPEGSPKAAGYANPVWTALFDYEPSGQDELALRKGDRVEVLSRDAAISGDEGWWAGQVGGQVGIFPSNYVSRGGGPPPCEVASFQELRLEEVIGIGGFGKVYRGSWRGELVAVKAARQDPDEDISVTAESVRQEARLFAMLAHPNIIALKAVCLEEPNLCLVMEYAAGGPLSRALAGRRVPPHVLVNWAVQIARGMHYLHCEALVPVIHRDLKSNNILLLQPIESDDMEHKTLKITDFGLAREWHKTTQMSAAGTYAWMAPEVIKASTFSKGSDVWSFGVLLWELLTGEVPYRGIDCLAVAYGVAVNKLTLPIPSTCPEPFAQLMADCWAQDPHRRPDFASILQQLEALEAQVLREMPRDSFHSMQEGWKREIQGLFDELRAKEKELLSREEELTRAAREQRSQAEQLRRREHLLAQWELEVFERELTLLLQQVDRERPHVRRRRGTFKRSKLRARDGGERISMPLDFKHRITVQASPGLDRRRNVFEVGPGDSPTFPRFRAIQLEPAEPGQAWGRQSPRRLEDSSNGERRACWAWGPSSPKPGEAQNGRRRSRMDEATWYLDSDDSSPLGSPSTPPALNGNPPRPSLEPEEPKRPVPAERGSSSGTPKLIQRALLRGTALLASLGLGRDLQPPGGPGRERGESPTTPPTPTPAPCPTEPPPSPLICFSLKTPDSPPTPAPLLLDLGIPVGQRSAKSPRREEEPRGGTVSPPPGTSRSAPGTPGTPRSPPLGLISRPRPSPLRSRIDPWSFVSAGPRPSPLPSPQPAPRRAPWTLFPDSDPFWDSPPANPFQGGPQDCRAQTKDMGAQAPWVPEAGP

COc1cc(N(C)c2ccnc3ccc(C(F)(F)F)cc23)cc(OC)c1OC
% binding [1]: 98%

C=CC(=O)Nc1cc(-n2c(=O)ccc3cnc4ccc(-c5ccc(NS(C)(=O)=O)cc5)cc4c32)ccc1C
% of control [2]: 90%

Nc1cnc(N2CCc3cc(S(=O)(=O)Nc4c(F)cc(Cl)cc4F)cc(N4CCCC4=O)c32)nc1 [TP-020n]
% of control [3]: 100%

Cn1cc(-n2cnc3c(NCc4nc5cc(Cl)c(Cl)cc5[nH]4)nc(N4CCOCC4)nc32)cn1
% of control [4]: 1.33%

O=C(NOC[C@H](O)CO)c1ccc(F)c(F)c1Nc1ccc(I)cc1F
% of control [5]: 91%

C=CC(=O)Nc1cccc(C(=O)Nc2ccc(Nc3cc(-c4[nH]c(SC)nc4C)ccn3)cc2)c1
% of control ([6]; at 1 µM): 107%
% of control ([6]; at 5 µM): 95%
% of control ([7]; at 1 µM): 77%
% of control ([7]; at 5 µM): 54%
% of control ([8]; at 1 µM): 74%
% of control ([8]; at 5 µM): 39%

COc1cc(C(=O)N2CC[C@@H](O)[C@@H](N)C2)cc2nc(-c3cc4ccccc4n3CC3CC3)n(C)c12
pXC50 [9]: 4.6 M

CN1Cc2nccc(-c3cn(C)nc3-c3ccc(F)cc3)c2C1=O
% of inhibition [10]: 4%

CC[C@@H]1[C@H](F)C(=O)N[C@@H]1COc1nccc2cc(C(N)=O)c(OC)cc12 [ZIMLOVISERTIB]
% of inhibition [11]: -6.1%

CN(C)CCOc1ccc(-c2nc(-c3ccncc3)c(-c3ccc4c(c3)CC/C4=N\O)[nH]2)cc1
% of control [12]: 92%

CCN(CC)CCCCNc1ncc2cc(-c3cc(OC)cc(OC)c3)c(NC(=O)NC(C)(C)C)nc2n1
% of control [13]: 100%
% of control [14]: 100%
% of control [15]: 100%

— ChEMBL document CHEMBL5465560, “Selectivity Literature for EUbOPEN Chemogenomic Library” (2024)
